Where a name gives a salt, the structure may show the parent alone.
Test system: alpha-adrenergic cardiac receptors
Assay: Mechanism of cardiostimulant action: alpha-adrenergic cardiac receptors
Settings: mechanism study
Excerpt: The mechanism of the inotropic activity of CHF 1255 has been studied in a series of other tests.
Studies have excluded the possibility that the cardiostimulant action of the compound is due to catecholamines release, to the stimulation of alpha-adrenergic cardiac receptors, or to the stimulation of histaminergic H1 and H2 receptors.

With `COc1ccc2c(c1OC)CCC(N[C@@H](C)[C@H](O)c1ccc(O)cc1)C2` (relative stereo) [CHF 1255, Erythro-5,6-Dimethoxy-2-[2-(4-hydroxyphenyl)-2-hydroxy-1-mehylethylamino]1,2,3,4-tetrahydronaphthalene hydrochloride] the “Contribution of alpha-adrenergic cardiac receptor stimulation to cardiostimulant action” value was “excluded”.
